Data published in patent US4160095A, “7,8-Didehydro-PGI1 amides” (The Upjohn Company, priority 1978, dated 1979).

Test system: endoperoxide cyclooxygenase (PG synthetase)
Assay: Inhibition of oxygen uptake in the conversion of unsaturated fatty acid to prostaglandin endoperoxides (cyclooxygenase / PG synthetase inhibition, standard in vitro laboratory test)
Type: biochemical
From the text: The novel prostacyclin analogs disclosed herein are all inhibitors of endoperoxide cyclooxygenase, an enzyme which converts unsaturated fatty acids (e.g., arachadonic acid) to prostaglandin endoperoxide intermediate (e.g., PGH2). The inhibition of this enzyme (also known as PG synthetase) is established as a standard in vitro laboratory test which measures oxygen uptake in the conversion of the unsaturated fatty acid to the endoperoxides, e.g., [drawing 22]
The efficacy of the novel prostacyclin analogs herein as inhibitors of cyclooxygenase (PG synthetase) is indicated in the following comparison between 2-(acetylozy)benzoic acid (aspirin) and 7,8-didehydro-6β-PGI1, methyl ester:
For further description of PG synthetase inhibition, see Vane, Nature New Biology, 231-232 (1971) and Takeguchi, et al., Prostaglandins 2:169 (1972).

## CC(=O)Oc1ccccc1C(=O)O [2-(Acetyloxy)-benzoic acid, 2-(acetyloxy)benzoic acid]
Concentration 5 × 10^-4 M
  Percent inhibition of Oxygen Uptake: 100%
Concentration 5 × 10^-5 M, result in words
  Percent inhibition of Oxygen Uptake: Inactive

## CCCCC[C@H](O)/C=C/[C@@H]1C2=C[C@H](CCCCC(=O)OC)O[C@H]2C[C@H]1O [7,8-Didehydro-6β-PGI methyl ester, 7,8-didehydro-6β-PGI1, methyl ester]
Concentration 5 × 10^-4 M
  Percent inhibition of Oxygen Uptake: 46%
